From publication PMC8288134, “Synthesis, potential antitumor activity, cell cycle analysis, and multitarget mechanisms of novel hydrazones incorporating a 4-methylsulfonylbenzene scaffold: a molecular docking study” (Journal of Enzyme Inhibition and Medicinal Chemistry, 2021)

What was measured:
CCRF-CEM = tested on: CCRF-CEM; set-up: method as in https://dtp.cancer.gov/dtpstandard/dwindex/index.jsp; conditions: reference drugs, ref https://dtp.cancer.gov/dtpstandard/dwindex/index.jsp; cited from earlier work
HL-60(TB) = tested on: HL-60(TB); set-up: method as in https://dtp.cancer.gov/dtpstandard/dwindex/index.jsp; conditions: reference drugs, ref https://dtp.cancer.gov/dtpstandard/dwindex/index.jsp; cited from earlier work
HOP-62 = tested on: HOP-62; set-up: method as in https://dtp.cancer.gov/dtpstandard/dwindex/index.jsp; conditions: reference drugs, ref https://dtp.cancer.gov/dtpstandard/dwindex/index.jsp; cited from earlier work
NCI-H322M = tested on: NCI-H322M; set-up: method as in https://dtp.cancer.gov/dtpstandard/dwindex/index.jsp; conditions: reference drugs, ref https://dtp.cancer.gov/dtpstandard/dwindex/index.jsp; cited from earlier work
COLO 205 = tested on: COLO 205; set-up: method as in https://dtp.cancer.gov/dtpstandard/dwindex/index.jsp; conditions: reference drugs, ref https://dtp.cancer.gov/dtpstandard/dwindex/index.jsp; cited from earlier work
HT29 = tested on: HT29; set-up: method as in https://dtp.cancer.gov/dtpstandard/dwindex/index.jsp; conditions: reference drugs, ref https://dtp.cancer.gov/dtpstandard/dwindex/index.jsp; cited from earlier work
SF-268 = tested on: SF-268; set-up: method as in https://dtp.cancer.gov/dtpstandard/dwindex/index.jsp; conditions: reference drugs, ref https://dtp.cancer.gov/dtpstandard/dwindex/index.jsp; cited from earlier work
U251 = tested on: U251; set-up: method as in https://dtp.cancer.gov/dtpstandard/dwindex/index.jsp; conditions: reference drugs, ref https://dtp.cancer.gov/dtpstandard/dwindex/index.jsp; cited from earlier work
SK-MEL-28 = tested on: SK-MEL-28; set-up: method as in https://dtp.cancer.gov/dtpstandard/dwindex/index.jsp; conditions: reference drugs, ref https://dtp.cancer.gov/dtpstandard/dwindex/index.jsp; cited from earlier work
UACC-257 = tested on: UACC-257; set-up: method as in https://dtp.cancer.gov/dtpstandard/dwindex/index.jsp; conditions: reference drugs, ref https://dtp.cancer.gov/dtpstandard/dwindex/index.jsp; cited from earlier work
OVCAR-3 = tested on: OVCAR-3; set-up: method as in https://dtp.cancer.gov/dtpstandard/dwindex/index.jsp; conditions: reference drugs, ref https://dtp.cancer.gov/dtpstandard/dwindex/index.jsp; cited from earlier work
OVCAR-4 = tested on: OVCAR-4; set-up: method as in https://dtp.cancer.gov/dtpstandard/dwindex/index.jsp; conditions: reference drugs, ref https://dtp.cancer.gov/dtpstandard/dwindex/index.jsp; cited from earlier work
NCI/ADR-RES = tested on: NCI/ADR-RES; set-up: method as in https://dtp.cancer.gov/dtpstandard/dwindex/index.jsp; conditions: reference drugs, ref https://dtp.cancer.gov/dtpstandard/dwindex/index.jsp; cited from earlier work
CAKI-1 = tested on: CAKI-1; set-up: method as in https://dtp.cancer.gov/dtpstandard/dwindex/index.jsp; conditions: reference drugs, ref https://dtp.cancer.gov/dtpstandard/dwindex/index.jsp; cited from earlier work
SN12C = tested on: SN12C; set-up: method as in https://dtp.cancer.gov/dtpstandard/dwindex/index.jsp; conditions: reference drugs, ref https://dtp.cancer.gov/dtpstandard/dwindex/index.jsp; cited from earlier work
TK-10 = tested on: TK-10; set-up: method as in https://dtp.cancer.gov/dtpstandard/dwindex/index.jsp; conditions: reference drugs, ref https://dtp.cancer.gov/dtpstandard/dwindex/index.jsp; cited from earlier work
UO-31 [1] = tested on: UO-31; set-up: method as in https://dtp.cancer.gov/dtpstandard/dwindex/index.jsp; conditions: reference drugs, ref https://dtp.cancer.gov/dtpstandard/dwindex/index.jsp; cited from earlier work
MDA-MB-231/ATCC = tested on: MDA-MB-231/ATCC; set-up: method as in https://dtp.cancer.gov/dtpstandard/dwindex/index.jsp; conditions: reference drugs, ref https://dtp.cancer.gov/dtpstandard/dwindex/index.jsp; cited from earlier work
HS 578 T = tested on: HS 578 T; set-up: method as in https://dtp.cancer.gov/dtpstandard/dwindex/index.jsp; conditions: reference drugs, ref https://dtp.cancer.gov/dtpstandard/dwindex/index.jsp; cited from earlier work
[2] = tested on: leukaemia tumour cell lines; conditions: cited from earlier work; for GI50: read-out: GI50 (subpanel average), reference drugs, ref https://dtp.cancer.gov/dtpstandard/dwindex/index.jsp; for CC50: read-out: LC50 (subpanel average), reference drugs, ref https://dtp.cancer.gov/dtpstandard/dwindex/index.jsp; for TGI (subpanel average): reference drugs, ref https://dtp.cancer.gov/dtpstandard/dwindex/index.jsp
[3] = tested on: colon cancer tumour cell lines; conditions: cited from earlier work; for GI50: read-out: GI50 (subpanel average), reference drugs, ref https://dtp.cancer.gov/dtpstandard/dwindex/index.jsp; for CC50: read-out: LC50 (subpanel average), reference drugs, ref https://dtp.cancer.gov/dtpstandard/dwindex/index.jsp; for TGI (subpanel average): reference drugs, ref https://dtp.cancer.gov/dtpstandard/dwindex/index.jsp
[4] = tested on: melanoma tumour cell lines; conditions: cited from earlier work; for GI50: read-out: GI50 (subpanel average), reference drugs, ref https://dtp.cancer.gov/dtpstandard/dwindex/index.jsp; for CC50: read-out: LC50 (subpanel average), reference drugs, ref https://dtp.cancer.gov/dtpstandard/dwindex/index.jsp; for TGI (subpanel average): reference drugs, ref https://dtp.cancer.gov/dtpstandard/dwindex/index.jsp
[5] = tested on: renal cancer tumour cell lines; conditions: cited from earlier work; for GI50: read-out: GI50 (subpanel average), reference drugs, ref https://dtp.cancer.gov/dtpstandard/dwindex/index.jsp; for CC50: read-out: LC50 (subpanel average), reference drugs, ref https://dtp.cancer.gov/dtpstandard/dwindex/index.jsp; for TGI (subpanel average): reference drugs, ref https://dtp.cancer.gov/dtpstandard/dwindex/index.jsp
SR = experiment: NCI antitumor screen (SRB); type: cell-based; conditions: Homo sapiens, one dose 10 µM, read-out: Growth inhibition percentage (GI%)
HCC-2998 = experiment: NCI antitumor screen (SRB); type: cell-based; conditions: Homo sapiens, one dose 10 µM, read-out: Growth inhibition percentage (GI%)
MALME-3M = experiment: NCI antitumor screen (SRB); type: cell-based; conditions: Homo sapiens, one dose 10 µM, read-out: Growth inhibition percentage (GI%)
UO-31 [6] = experiment: NCI antitumor screen (SRB); type: cell-based, human; conditions: Homo sapiens; UO-31; one dose 10 µM; read-out: Growth inhibition percentage (GI%)
PC-3 = experiment: NCI antitumor screen (SRB); type: cell-based; conditions: Homo sapiens, one dose 10 µM, read-out: Growth inhibition percentage (GI%)
M14 = experiment: NCI antitumor screen (SRB); type: cell-based; conditions: Homo sapiens, one dose 10 µM, read-out: Growth inhibition percentage (GI%)
OVCAR-8 = experiment: NCI antitumor screen (SRB); type: cell-based; conditions: Homo sapiens, one dose 10 µM, read-out: Growth inhibition percentage (GI%)
EGFR = EGFR (Homo sapiens, UniProt P00533); experiment: biochemical; conditions: read-out: IC50 EGFR Inhibition
From the text: (§1) In vitro luminescent EGFR tyrosine kinase assay using Kinase-Glo® MAX as a detection reagent, and In vitro HER2 tyrosine kinase assay using DP‐Glo™ reagent that measures ADP formed from a kinase reaction, this luminescent signal positively correlates with ADP amount and kinase activity. […]
(§2) 2.1.5. EGFR and Her2 assays
(§3) In vitro luminescent EGFR tyrosine kinase assay, using Kinase-Glo® MAX as a detection reagent, and In vitro HER2 tyrosine kinase assay, using DP‐Glo™ reagent that measures the adenosine diphosphate (ADP) formed from a kinase reaction, were performed; this luminescent signal positively correlates with ADP amount and kinase activity. In 17 μl of distilled water, 6 μl of Kinase assay buffer and 1 μl ATP and 1 μl PTK substrate were mixed (master mixture). In every well, mix 20 μl of the master mixture and 5 μl of Inhibitor solution (Test Inhibitor) for positive control, and use 5 μl of the same solution without inhibitor (Inhibitor buffer) as the blank solution; add 20 μl of diluted EGFR or Her2 enzyme and incubate at 30°C for 40 min. Add 50 μl of Kinase-Glo Max reagent to each well, cover the plate with aluminum foil and incubate the plate at room temperature for 15 min. Afterward, measure luminescence using the microplate reader. “Blank” value is subtracted from all readings. […]

HER2 = HER2 (Homo sapiens, UniProt P04626); experiment: biochemical; conditions: read-out: IC50 HER2 Inhibition
From the text: as §1, §2, §3

Chain of HER2 (P04626 23-1255): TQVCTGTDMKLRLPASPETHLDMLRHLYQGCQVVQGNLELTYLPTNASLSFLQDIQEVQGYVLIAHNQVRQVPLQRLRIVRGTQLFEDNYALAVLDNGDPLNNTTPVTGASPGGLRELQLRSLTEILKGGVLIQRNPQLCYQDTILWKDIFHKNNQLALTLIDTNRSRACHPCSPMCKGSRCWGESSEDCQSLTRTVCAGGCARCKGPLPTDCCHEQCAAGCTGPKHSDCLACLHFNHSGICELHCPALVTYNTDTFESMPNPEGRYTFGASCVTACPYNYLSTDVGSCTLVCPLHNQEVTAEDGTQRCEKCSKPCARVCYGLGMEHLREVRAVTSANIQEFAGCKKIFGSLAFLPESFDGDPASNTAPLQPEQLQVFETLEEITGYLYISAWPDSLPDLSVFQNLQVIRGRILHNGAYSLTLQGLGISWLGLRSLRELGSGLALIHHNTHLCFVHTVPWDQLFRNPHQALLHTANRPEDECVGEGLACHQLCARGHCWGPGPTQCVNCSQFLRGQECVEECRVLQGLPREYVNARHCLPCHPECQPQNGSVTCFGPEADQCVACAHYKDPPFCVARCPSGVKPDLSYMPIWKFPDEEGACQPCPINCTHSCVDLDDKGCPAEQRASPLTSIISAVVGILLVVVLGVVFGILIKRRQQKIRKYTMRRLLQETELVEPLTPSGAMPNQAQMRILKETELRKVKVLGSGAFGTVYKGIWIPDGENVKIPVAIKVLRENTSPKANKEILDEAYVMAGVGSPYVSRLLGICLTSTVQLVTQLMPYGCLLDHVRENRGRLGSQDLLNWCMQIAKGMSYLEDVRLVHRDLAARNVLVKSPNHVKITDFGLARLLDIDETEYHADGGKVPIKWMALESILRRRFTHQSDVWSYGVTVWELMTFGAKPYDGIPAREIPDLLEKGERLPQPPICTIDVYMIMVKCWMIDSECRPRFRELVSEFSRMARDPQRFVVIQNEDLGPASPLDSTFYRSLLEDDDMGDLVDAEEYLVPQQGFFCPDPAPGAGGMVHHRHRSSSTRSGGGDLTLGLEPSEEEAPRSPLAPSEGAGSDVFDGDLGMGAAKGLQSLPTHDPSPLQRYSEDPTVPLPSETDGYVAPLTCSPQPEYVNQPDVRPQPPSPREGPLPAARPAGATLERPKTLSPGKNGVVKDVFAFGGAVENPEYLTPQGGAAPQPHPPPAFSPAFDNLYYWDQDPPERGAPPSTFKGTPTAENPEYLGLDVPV
Chain of EGFR (P00533 25-1210): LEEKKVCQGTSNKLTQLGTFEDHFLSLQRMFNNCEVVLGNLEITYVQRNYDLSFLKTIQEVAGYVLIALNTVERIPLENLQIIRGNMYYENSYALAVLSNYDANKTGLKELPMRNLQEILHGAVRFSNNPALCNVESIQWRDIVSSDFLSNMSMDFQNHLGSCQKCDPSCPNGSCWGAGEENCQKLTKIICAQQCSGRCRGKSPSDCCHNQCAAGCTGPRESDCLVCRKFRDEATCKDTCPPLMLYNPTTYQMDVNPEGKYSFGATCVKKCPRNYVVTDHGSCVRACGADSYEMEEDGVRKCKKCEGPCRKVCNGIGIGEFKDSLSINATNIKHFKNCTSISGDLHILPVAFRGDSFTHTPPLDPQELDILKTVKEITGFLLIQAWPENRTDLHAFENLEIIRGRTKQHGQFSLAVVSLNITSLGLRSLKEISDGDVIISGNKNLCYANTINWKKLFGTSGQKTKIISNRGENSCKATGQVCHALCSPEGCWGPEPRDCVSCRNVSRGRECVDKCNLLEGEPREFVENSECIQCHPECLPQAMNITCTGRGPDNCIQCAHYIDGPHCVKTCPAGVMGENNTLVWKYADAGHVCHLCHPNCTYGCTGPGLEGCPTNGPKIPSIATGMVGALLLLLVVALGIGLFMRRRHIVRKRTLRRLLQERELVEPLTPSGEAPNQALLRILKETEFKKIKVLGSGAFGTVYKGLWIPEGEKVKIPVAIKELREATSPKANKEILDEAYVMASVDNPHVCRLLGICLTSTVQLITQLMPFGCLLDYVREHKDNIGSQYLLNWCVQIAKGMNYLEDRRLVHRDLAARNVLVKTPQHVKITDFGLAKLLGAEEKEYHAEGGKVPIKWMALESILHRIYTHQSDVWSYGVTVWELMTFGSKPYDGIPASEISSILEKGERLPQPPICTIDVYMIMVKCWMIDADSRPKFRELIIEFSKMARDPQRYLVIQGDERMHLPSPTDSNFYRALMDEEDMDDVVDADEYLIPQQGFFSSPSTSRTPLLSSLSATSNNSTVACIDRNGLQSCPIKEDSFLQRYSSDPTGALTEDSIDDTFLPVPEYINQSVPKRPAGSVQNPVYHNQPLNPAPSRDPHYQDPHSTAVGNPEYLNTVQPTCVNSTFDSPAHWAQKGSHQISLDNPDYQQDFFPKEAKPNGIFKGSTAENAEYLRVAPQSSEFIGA

Compound | GI50 [2] [µM] | CC50 [2] [µM] | TGI (subpanel average) [2] [µM] | GI50 [3] [µM] | CC50 [3] [µM] | TGI (subpanel average) [3] [µM] | GI50 [4] [µM] | CC50 [4] [µM] | TGI (subpanel average) [4] [µM] | GI50 [5] [µM] | CC50 [5] [µM] | TGI (subpanel average) [5] [µM] | inhibition at 10 µM (SR) [%] | inhibition at 10 µM (HCC-2998) [%] | inhibition at 10 µM (MALME-3M) [%] | inhibition at 10 µM (UO-31 [6]) [%] | inhibition at 10 µM (PC-3) [%] | inhibition at 10 µM (M14) [%] | inhibition at 10 µM (OVCAR-8) [%] | IC50 (EGFR) [µM] | also measured
Cc1ccc(-c2cc(C(F)(F)F)nn2-c2ccc(S(N)(=O)=O)cc2)cc1 [Celecoxib, celecoxib] | 12.3 | 67.1 | 29.27 | 20.7 | 66.5 | 41.39 | 22.5 | 64.3 | 38.49 | 19.9 | 61.2 | 41.19 |  |  |  |  |  |  |  |  | GI50 (CCRF-CEM): 12.6 µM; GI50 (HL-60(TB)): 15.8 µM; GI50 (HOP-62): 63.1 µM; GI50 (NCI-H322M): 19.9 µM; GI50 (COLO 205): 15.8 µM; GI50 (HT29): 15.8 µM; GI50 (SF-268): 15.8 µM; GI50 (U251): 15.8 µM; GI50 (SK-MEL-28): 15.8 µM; GI50 (UACC-257): 19.9 µM; GI50 (OVCAR-3): 15.8 µM; GI50 (OVCAR-4): 12.6 µM; GI50 (NCI/ADR-RES): 15.8 µM; GI50 (CAKI-1): 19.9 µM; GI50 (SN12C): 15.8 µM; GI50 (TK-10): 19.9 µM; GI50 (UO-31 [1]): 15.8 µM; GI50 (MDA-MB-231/ATCC): 15.8 µM; GI50 (HS 578 T): 19.9 µM
O=c1[nH]cc(F)c(=O)[nH]1 [Compound 5-Fu, 5-fluorouracil, reference compound] | 2.82 | > 100 | 68.37 | 0.27 | 89.3 | 51.41 | 7.83 | 95.4 | 61.57 | 0.93 | > 100 | 46.25 | 75.2 | > 100 | 41.8 | 58.7 | 41.8 |  |  |  | 
CS(=O)(=O)c1ccc(C(=O)NN=Cc2cccc3ccccc23)cc1 [Compound 6, 4-(Methylsulfonyl)-N'-(naphthalen-1-ylmethylene)benzohydrazide] |  |  |  |  |  |  |  |  |  |  |  |  | 67.5 | 15.5 | 30.3 | 21.5 | 21.2 | 33.2 | 16.2 | 0.26 ± 0.09 | IC50 (HER2): 0.35 ± 0.01 µM
Cc1ccc(C=NNC(=O)c2ccc(S(C)(=O)=O)cc2)cc1 [Compound 9, N'-(4-Methylbenzylidene)-4-(methylsulfonyl)benzohydrazide] |  |  |  |  |  |  |  |  |  |  |  |  | 43.8 | < 10 | 15.2 | 12.3 | 26.9 | < 10 | < 10 | 0.77 ± 0.03 | IC50 (HER2): 0.41 ± 0.01 µM
